Experimental data from the NIST ThermoML archive (doi:10.1021/acs.jced.8b00196).
Numbers after ± are expanded uncertainties.

How the values were obtained:
[1] = Crystal; DSC
[2] = Molar enthalpy of transition or fusion; conditions: Crystal; DSC

In the case of `O=C(c1ccccc1)c1ccccc1` [benzophenone], the Triple point temperature [1] is reported as 323.4 ± 2.1 K and the “Molar enthalpy of transition or fusion” value [2] is reported as 4.21 ± 0.311 kcal/mol.
